Results on one substance are retold here after patent US8221990B2, “Screening GPR12 receptor for substances having Nesfatin-1-like action, or which regulate Nesfatin-1 action” (Teijin Pharma Limited, priority 2007, dated 2012).

Assay [1] can be described thus: Amount of food intake in a mouse after intraperitoneal administration. To be noted: C57BL/6J male mouse, 0.25 nmol per gram of body weight, 0 to 3 hours. In kind it is in vivo. How it is done: A 7-week-old C57BL/6J strain male mouse (CLEA Japan, Inc.) was used as an experimental animal. After purchasing the mouse, the mouse was raised at 22° C. in cycles of the 12-hour light period from 6 a.m. to 6 p.m. and the 12-hour dark period from 6 p.m. to 6 a.m. on the next morning with free access to pelleted feed (CLEA Japan, Inc., CE-2).
A 5 nmol aliquot of Nesfatin-1M30 (Mid-segment, SEQ ID NO: 11), M30_Ag-A (SEQ ID NO: 50), or M30_MSH-A (SEQ ID NO: 51) was dissolved in each 100 μL of saline, and each of the resultant solutions was administered intraperitoneally to a C57BL/6J mouse at a dose of 0.25 nmol per gram of body weight of the mouse. In the control group, only saline (Vehicle) was administered. Each mouse (5 mice in each group) was intraperitoneally given a single injection of a sample using a tuberculin syringe with 26 G needle, immediately before the dark period (6 p.m.).
Each mouse administered was placed in an individual cage, and the amount of food intake was determined by measuring the decreased amount of the pelleted feed during the period from 0 to 3 hours after the administration of a test substance. In the mouse administered with each test sample, the amount of food intake during 3 hours after the administration (g/3 h) is shown in FIG. 6.

In assay [2] the target is T1, mouse GPR12 (Mus musculus, UniProt P35412).
T1 construct: expressed in transfected cells
T1 sequence (P35412 1-334): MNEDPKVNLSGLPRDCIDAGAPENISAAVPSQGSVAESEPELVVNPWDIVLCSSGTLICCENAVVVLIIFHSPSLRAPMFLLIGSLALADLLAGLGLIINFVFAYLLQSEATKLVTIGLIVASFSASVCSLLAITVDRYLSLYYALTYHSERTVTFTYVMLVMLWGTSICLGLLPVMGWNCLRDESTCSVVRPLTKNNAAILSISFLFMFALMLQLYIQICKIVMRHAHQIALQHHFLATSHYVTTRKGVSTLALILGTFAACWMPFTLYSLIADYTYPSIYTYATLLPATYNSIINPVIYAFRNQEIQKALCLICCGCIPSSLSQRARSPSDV
The assay can be described thus: cAMP production in CHO-K1-cell stable expression system (CHO-K1-GPR12). In kind it is cell-based. To be noted: CHO-K1-GPR12, peptide 10^-9 M, Forskolin 10^-5 M, 30 minutes. How it is done: The preparation of cells stably expressing GPR12 was conducted by a conventional method, and hereinafter described briefly. A vector (pcDNA3.1-GPR12) in which a gene (cDNA) encoding mouse GPR12 (SEQ ID NO: 8) was inserted at the downstream of a CMV promoter of pcDNA3.1 (TM) (Invitrogen Corporation) was prepared, 10 μg of the vector was mixed with 250 μL of medium OPTI-MEM™ (Invitrogen Corporation), and 10 μg of Lipofectamine™ 2000 Reagent (Invitrogen Corporation) was mixed with 250 μL of medium OPTI-MEM™, 5 minutes later both mixtures were mixed, and the resultant mixture was left over at room temperature for 20 minutes to prepare a transfection reagent. Chinese hamster ovary cells (CHO-K1) [ATCC Cat. No. CCl-61] plated onto a 6-well plate at 1.5×10^6 cells/well on the previous day in advance were washed with medium OPTI-MEM™ once, and the above-mentioned transfection reagent (vector and Lipofectamine™ 2000 Reagent) was added to the cells dropwise to perform transfection. The resultant transfected cells were incubated at 37° C. for 5 hours in a CO2 incubator, and then the medium was replaced by Ham's F12 medium. Further, the next day the medium was exchanged with Ham's F12 medium containing 100 μg/mL of Geneticin® (Invitrogen Corporation), and furthermore the next day the medium was exchanged with the same medium containing 200 μg/mL of Geneticin®, and the following day the medium was exchanged with the same medium containing 700 μg/mL of Geneticin®, and after that, culturing was continued under the conditions of 37° C. and 5% CO2 in a medium containing Geneticin® at the same concentration. […]
The measured intracellular cAMP level was evaluated in terms of a ratio (Fold) of each intracellular cAMP level with respect to the mean of the intracellular cAMP level in the (−) group that is set as unity, in which CHO-K1-GPR12 cells were cultured in the medium containing no peptide.

Take “Nesfatin-1M30: mid-segment of Nesfatin-1, human-derived Nesfatin-1M30, SEQ ID NO: 11 (PDTGLYYDEYLKQVIDVLETDKHFREKLQK; listed as Homo sapiens)”: the “amount of food intake during 3 hours after the administration compared with control group (Vehicle)” value in assay [1] is “significant decrease of the food intake”. The “intracellular cAMP level compared with the group (-) cultured in medium containing no peptide” value in assay [2] is given as “about 5 fold”.
